From US12624018B1, “Inhibitors of RIPK2 and medical uses thereof” (Odyssey Therapeutics, Inc., priority 2022, dated 2026)
pIC50: −log10 of the molar value.

How the values were obtained:
[1] = molecular target: T1, RIPK2 enzyme (Homo sapiens, UniProt O43353); assay: RIPK2 inhibition (ADP-Glo Kinase Assay); type: biochemical; conditions: RIPK2 5 nM, ATP 150 μM, MBP substrate, read-out: RIPK2 IC50
T1 construct: purchased Carna 09-128
Procedure, shortened: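 Swine MBP substrate; compound and 5 nM RIPK2 first mixed for 30 min at room temperature; buffer pH 7.5 HEPES 50 mM with 10 mM MgCl2, 2 mM DTT, 1 mM EGTA, Brij-35, BSA.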

[2] = tested on: human NOD2 signaling; assay: Inhibition of human NOD2 signaling in HEK-Blue-hNOD2 cells (L18-MDP stimulated, SEAP reporter); type: cell-based; conditions: Homo sapiens, HEK-Blue hNOD2, HEK-Blue-hNOD2 cells, NOD2 ligand stimulation, SEAP reporter; read-out: hNOD2 IC50
Procedure, shortened: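 Read-out is SEAP absorbance at 620 nm after 3 h QUANTI-Blue development of supernatant from HEK293 cells carrying NOD2 and a SEAP reporter (12500/well). Cells got compound (10 points, 3-fold dilutions) and 0.5 ng/mL L18-MDP for 24 h at 37 °C; percent inhibition vs stimulated/unstimulated controls, 4-parameter IC50.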

[3] = molecular target: T2, RIPK2 and XIAP protein-protein interaction (Homo sapiens, UniProt O43353); assay: Inhibition of the interaction of RIPK2 with XIAP (NanoBRET in HEK293T cells); type: cell-based; conditions: RIPK2 HaloTag / XIAP NanoLuc, read-out: NanoBRET Scaffolding IC50
T2 construct: the N-terminus of full-length RIPK2 was appended with the HaloTag fusion protein; expressed in transfected cells; host or cells: HEK293T
Description: An assay measuring the RIPK2 and XIAP protein-protein interaction was generated using the NanoBRET protein:protein interaction system (Promega) which measures the energy transfer from a bioluminescent protein donor (NanoLuc fusion protein) to a fluorescent protein acceptor (Halotag fusion protein). In this assay, the C-terminus of full-length XIAP was appended with the NanoLuc fusion protein and the N-terminus of full-length RIPK2 was appended with the HaloTag fusion protein. Assay medium consisted of Opti-MEM I reduced serum medium with no phenol red plus 4% heat inactivated FBS. Transfection reagents were combined in a microfuge tube as follows: 400 μL of assay medium, 8 μL of vector with N-terminus of RIPK2 HaloTag fusion protein (vector concentration at 1 μg/μL), 0.8 μL of vector with C-terminus of XIAP NanoLuc fusion protein (vector concentration at 1 μg/μL), and 24 μL of FuGENE HD transfection reagent (Promega, catalogue number E2312). […] Test compounds were prepared into a 10 mM DMSO solution and were serially diluted into 10 points using a 3-fold dilution in a 384 well plate using a TECAN EV0200.
Method: HEK293T cells were transfected with the RIPK2 HaloTag fusion and XIAP NanoLuc fusion vectors in suspension. […] Transfection reagents were pre-mixed and incubated at room temperature for 30 minutes. Then the total transfection reagent mixture was added dropwise to the 16 mL cell suspension and mixed gently. 40 μL of the cells and transfection reagent suspension was plated into a white 384 well plate and incubated at 37° C. in a CO2 incubator for 24 hours. […] Lastly, a 3× solution of NanoBRET Nano-Glo substrate in Opti-MEM I reduced serum media (no phenol red; 20 μL total volume) was added to each well and incubated for 2-3 minutes at room temperature. The plate was then measured using 460 nm filter (donor emission) and 618 nm filter (acceptor emission) in an EnVision multimode plate reader (PerkinElmer). The NanoBRET ratio values were determined by dividing the acceptor emission value by the donor emission value for each sample.

T2 sequence (O43353 whole entry, the tested form may be a part): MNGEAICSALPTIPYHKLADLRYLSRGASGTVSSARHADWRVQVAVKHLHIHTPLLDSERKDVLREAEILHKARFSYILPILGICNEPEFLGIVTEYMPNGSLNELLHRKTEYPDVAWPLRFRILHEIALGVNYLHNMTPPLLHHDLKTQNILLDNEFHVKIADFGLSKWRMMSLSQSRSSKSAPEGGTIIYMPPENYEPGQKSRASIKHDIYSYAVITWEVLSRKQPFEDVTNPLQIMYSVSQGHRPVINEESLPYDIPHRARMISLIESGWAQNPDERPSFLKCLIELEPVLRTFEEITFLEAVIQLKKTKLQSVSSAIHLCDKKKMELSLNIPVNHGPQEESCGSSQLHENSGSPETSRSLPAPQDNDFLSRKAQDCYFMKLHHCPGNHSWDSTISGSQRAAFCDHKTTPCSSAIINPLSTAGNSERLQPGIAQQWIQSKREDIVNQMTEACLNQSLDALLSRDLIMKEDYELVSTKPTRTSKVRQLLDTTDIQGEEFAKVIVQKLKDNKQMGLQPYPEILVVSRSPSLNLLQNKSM
T1 sequence (O43353 1-299 limits assumed): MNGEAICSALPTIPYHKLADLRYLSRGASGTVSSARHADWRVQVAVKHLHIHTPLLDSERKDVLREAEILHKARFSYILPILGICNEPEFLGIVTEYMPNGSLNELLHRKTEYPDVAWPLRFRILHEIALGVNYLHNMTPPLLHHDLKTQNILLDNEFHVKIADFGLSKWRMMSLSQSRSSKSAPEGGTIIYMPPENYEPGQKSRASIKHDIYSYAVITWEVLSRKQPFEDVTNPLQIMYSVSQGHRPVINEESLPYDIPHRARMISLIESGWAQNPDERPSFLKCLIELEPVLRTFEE

CNC(=O)c1ccc2nccc(Oc3cc(F)c(CC(=O)Nc4cnn(C(C)(C)C)c4)cc3Cl)c2c1 [Compound 498, 4-(4-(2-((1-(tert-butyl)-1H-pyrazol-4-yl)amino)-2-oxoethyl)-2-chloro-5-fluorophenoxy)-N-methylquinoline-6-carboxamide]
pIC50 [1]: > 8.60
pIC50 [2]: 9.40
pIC50 [3]: 7.86

Cc1cc(CC(=O)Nc2cnn(C34CC(C3)C4)c2)ccc1Oc1ccnc2ccc(C(N)=O)cc12 [Compound 499, 4-(4-(2-((1-(bicyclo[1.1.1]pentan-1-yl)-1H-pyrazol-4-yl)amino)-2-oxoethyl)-2-methylphenoxy)quinoline-6-carboxamide]
pIC50 [1]: > 8.60
pIC50 [2]: 8.96
pIC50 [3]: 7.66

CNC(=O)c1ccc2nccc(Oc3ccc(CC(=O)Nc4cnn(C56CC(C5)C6)c4)cc3C)c2c1 [Compound 500, 4-(4-(2-((1-(bicyclo[1.1.1]pentan-1-yl)-1H-pyrazol-4-yl)amino)-2-oxoethyl)-2-methylphenoxy)-N-methylquinoline-6-carboxamide]
pIC50 [1]: > 8.60
pIC50 [2]: 9.40
pIC50 [3]: 8.13

Cc1cc(CC(=O)Nc2cnn(C34CC(C3)C4)c2)c(F)cc1Oc1ccnc2ccc(C(N)=O)cc12 [Compound 501, 4-(4-(2-((1-(bicyclo[1.1.1]pentan-1-yl)-1H-pyrazol-4-yl)amino)-2-oxoethyl)-5-fluoro-2-methylphenoxy)quinoline-6-carboxamide]
pIC50 [1]: > 8.60
pIC50 [2]: 8.66
pIC50 [3]: 7.20

CNC(=O)c1ccc2nccc(Oc3cc(F)c(CC(=O)Nc4cnn(C56CC(C5)C6)c4)cc3C)c2c1 [Compound 502, 4-(4-(2-((1-(bicyclo[1.1.1]pentan-1-yl)-1H-pyrazol-4-yl)amino)-2-oxoethyl)-5-fluoro-2-methylphenoxy)-N-methylquinoline-6-carboxamide]
pIC50 [1]: > 8.60
pIC50 [2]: 9.10
pIC50 [3]: 7.76

Cc1c(Oc2ccnc3ccc(C(N)=O)cc23)cc(F)c(CC(=O)Nc2cnn(C(C)(C)C)c2)c1F [Compound 503, 4-(4-(2-((1-(tert-butyl)-1H-pyrazol-4-yl)amino)-2-oxoethyl)-3,5-difluoro-2-methylphenoxy)quinoline-6-carboxamide]
pIC50 [1]: > 8.60
pIC50 [2]: 9.70
pIC50 [3]: 7.20

CNC(=O)c1ccc2nccc(Oc3cc(F)c(CC(=O)Nc4cnn(C(C)(C)C)c4)c(F)c3C)c2c1 [Compound 504, 4-(4-(2-((1-(tert-butyl)-1H-pyrazol-4-yl)amino)-2-oxoethyl)-3,5-difluoro-2-methylphenoxy)-N-methylquinoline-6-carboxamide]
pIC50 [1]: > 8.60
pIC50 [2]: 9.70
pIC50 [3]: 8.47

Cc1cc(CC(=O)Nc2cnn(C(C)(C)C)c2)cc(C)c1Oc1ccnc2ccc(C(N)=O)cc12 [Compound 505, 4-(4-(2-((1-(tert-butyl)-1H-pyrazol-4-yl)amino)-2-oxoethyl)-2,6-dimethylphenoxy)quinoline-6-carboxamide]
pIC50 [1]: > 8.60
pIC50 [2]: 8.46
pIC50 [3]: 6.89

CNC(=O)c1ccc2nccc(Oc3c(C)cc(CC(=O)Nc4cnn(C(C)(C)C)c4)cc3C)c2c1 [Compound 506, 4-(4-(2-((1-(tert-butyl)-1H-pyrazol-4-yl)amino)-2-oxoethyl)-2,6-dimethylphenoxy)-N-methylquinoline-6-carboxamide]
pIC50 [1]: > 8.60
pIC50 [2]: 8.66
pIC50 [3]: 7.13

NC(=O)c1ccc2nccc(Oc3cc(F)c(CC(=O)Nc4cnn(C56CC(C5)C6)c4)cc3Cl)c2c1 [Compound 509, 4-(4-(2-((1-(bicyclo[1.1.1]pentan-1-yl)-1H-pyrazol-4-yl)amino)-2-oxoethyl)-2-chloro-5-fluorophenoxy)quinoline-6-carboxamide]
pIC50 [1]: > 8.60
pIC50 [2]: 7.85
pIC50 [3]: 6.72

CNC(=O)c1ccc2nccc(Oc3cc(F)c(CC(=O)Nc4cnn(C56CC(C5)C6)c4)cc3Cl)c2c1 [Compound 510, 4-(4-(2-((1-(bicyclo[1.1.1]pentan-1-yl)-1H-pyrazol-4-yl)amino)-2-oxoethyl)-2-chloro-5-fluorophenoxy)-N-methylquinoline-6-carboxamide]
pIC50 [1]: > 8.60
pIC50 [2]: 8.08
pIC50 [3]: 6.76

Cc1cc(CC(=O)Nc2cnn(C(C)(C)C)c2)c(F)cc1Oc1ccnc2ccc(C(=O)NC34CC(C3)C4)cc12 [Compound 513, N-(bicyclo[1.1.1]pentan-1-yl)-4-(4-(2-((1-(tert-butyl)-1H-pyrazol-4-yl)amino)-2-oxoethyl)-5-fluoro-2-methylphenoxy)quinoline-6-carboxamide]
pIC50 [1]: > 8.60
pIC50 [2]: 8.51
pIC50 [3]: 7.46

CNC(=O)c1ccc2nccc(Oc3c(C)cc(CC(=O)Nc4cnn(C(C)(C)C)c4)cc3Cl)c2c1 [Compound 515, 4-(4-(2-((1-(tert-butyl)-1H-pyrazol-4-yl)amino)-2-oxoethyl)-2-chloro-6-methylphenoxy)-N-methylquinoline-6-carboxamide]
pIC50 [1]: > 8.60
pIC50 [2]: 8.85
pIC50 [3]: 6.77

Cc1cc(CC(=O)Nc2cnn(C(C)(C)C)c2)cc(Cl)c1Oc1ccnc2ccc(C(N)=O)cc12 [Compound 516, 4-(4-(2-((1-(tert-butyl)-1H-pyrazol-4-yl)amino)-2-oxoethyl)-2-chloro-6-methylphenoxy)quinoline-6-carboxamide]
pIC50 [1]: > 8.60
pIC50 [2]: 9.00
pIC50 [3]: 6.99

CC1(NC(=O)c2ccc3nccc(Oc4cc(F)c(CC(=O)Nc5cnn(C(C)(C)C)c5)cc4Cl)c3c2)CC1 [Compound 517, 4-(4-(2-((1-(tert-butyl)-1H-pyrazol-4-yl)amino)-2-oxoethyl)-2-chloro-5-fluorophenoxy)-N-(1-methylcyclopropyl)quinoline-6-carboxamide]
pIC50 [1]: > 8.60
pIC50 [2]: 8.57
pIC50 [3]: 6.51

Cc1c(CC(=O)Nc2cnn(C(C)(C)C)c2)ccc(Oc2ccnc3ccc(S(C)(=O)=O)cc23)c1C [Compound 518, N-(1-(tert-butyl)-1H-pyrazol-4-yl)-2-(2,3-dimethyl-4-((6-(methylsulfonyl)quinolin-4-yl)oxy)phenyl)acetamide]
pIC50 [1]: > 8.60
pIC50 [2]: 8.82
pIC50 [3]: 7.57

Cc1cc(CC(=O)Nc2cnn(C(C)(C)C)c2)c(F)cc1Oc1ccnc2ccc(-c3nccnc3C(F)(F)F)cc12 [Compound 523, N-(1-(tert-butyl)-1H-pyrazol-4-yl)-2-(2-fluoro-5-methyl-4-((6-(3-(trifluoromethyl)pyrazin-2-yl)quinolin-4-yl)oxy)phenyl)acetamide]
pIC50 [1]: 8.31
pIC50 [2]: 7.73
pIC50 [3]: 6.88

Cc1c(Oc2ccnc3ccc(C(N)=O)cc23)cc(F)c(CC(=O)Nc2cnn(C34CC(C3)C4)c2)c1F [Compound 556, 4-(4-(2-((1-(bicyclo[1.1.1]pentan-1-yl)-1H-pyrazol-4-yl)amino)-2-oxoethyl)-3,5-difluoro-2-methylphenoxy)quinoline-6-carboxamide]
pIC50 [1]: > 8.60
pIC50 [2]: 9.05
pIC50 [3]: 7.38

CNC(=O)c1ccc2nccc(Oc3cc(F)c(CC(=O)Nc4cnn(C56CC(C5)C6)c4)c(F)c3C)c2c1 [Compound 557, 4-(4-(2-((1-(bicyclo[1.1.1]pentan-1-yl)-1H-pyrazol-4-yl)amino)-2-oxoethyl)-3,5-difluoro-2-methylphenoxy)-N-methylquinoline-6-carboxamide]
pIC50 [1]: > 8.60
pIC50 [2]: 9.52
pIC50 [3]: 7.45

[2H]C([2H])([2H])NC(=O)c1ccc2nccc(Oc3cc(F)c(CC(=O)Nc4cnn(C56CC(C5)C6)c4)c(F)c3C)c2c1 [Compound 558, 4-(4-(2-((1-(bicyclo[1.1.1]pentan-1-yl)-1H-pyrazol-4-yl)amino)-2-oxoethyl)-3,5-difluoro-2-methylphenoxy)-N-(methyl-d3)quinoline-6-carboxamide]
pIC50 [1]: > 8.60
pIC50 [2]: 9.15
pIC50 [3]: 7.24
